From PMC9017349, “Spiropyrimidinetriones: a Class of DNA Gyrase Inhibitors with Activity against Mycobacterium tuberculosis and without Cross-Resistance to Fluoroquinolones” (Antimicrobial Agents and Chemotherapy, 2022)
Converted amounts (≈) assume the structure as drawn.

What was measured:
M. tuberculosis H37Rv [1] = test: MIC against M. tuberculosis H37Rv in 7H9 medium with various supplements; type: cell-based, Mycobacterium tuberculosis; details: for MIC: Mycobacterium tuberculosis
[2] = tested on: M. tuberculosis Erdman pFCA-LuxAB (Erdman Lux); details: BALB/c mice, 100 mg/kg p.o. daily, 12 days
Mtb = type: in vivo; details: 100 mg/kg, day 21; limit 1.57 log10 CFU
[3] = tested on: recA promoter reporter in M. tuberculosis H37Rv; type: cell-based, Mycobacterium tuberculosis
[4] = tested on: iniB promoter reporter in M. tuberculosis H37Rv; type: cell-based, Mycobacterium tuberculosis
M. tuberculosis H37Rv [5] = test: microbe, parasite or virus in culture; type: cell-based; details: Mycobacterium tuberculosis, read-out: MIC90, H37Rv
H37Rv (RecA) = type: cell-based, Mycobacterium tuberculosis
M. tuberculosis H37Rv [6] = test: microbe, parasite or virus in culture; type: cell-based; details: for MBC relative to MIC / MBC: CARA; for MIC / MBC: Mycobacterium tuberculosis, 168 h; for MIC: H37Rv, 7 days, Middlebrook 7H9 with OADC and glycerol, read-out: MIC (dose-response); for MBC: H37RV, transfer to charcoal agar, additional 7 days
M. tuberculosis = details: 200 mg/kg, 14 days of dosing, published study; cited from earlier work
M. tuberculosis ΔcydA = type: cell-based
N. gonorrhoeae = type: cell-based
[7] = H37RV, read-out: MIC, ADC/GLU/TW
[8] = H37RV, read-out: MIC, DPPC/CAS/TX
[9] = H37RV, read-out: MIC, DPPC/Chol/BSA/TX
[10] = H37RV, read-out: MIC, GLU/BSA/TX
[11] = H37RV, read-out: MIC, GLU/CAS/TX

Compound | MIC (M. tuberculosis H37Rv [1]; [7]) [µM] | MIC (M. tuberculosis H37Rv [1]; [8]) [µM] | MIC (M. tuberculosis H37Rv [1]; [9]) [µM] | MIC (M. tuberculosis H37Rv [1]; [10]) [µM] | MIC (M. tuberculosis H37Rv [1]; [11]) [µM] | MIC90 (M. tuberculosis H37Rv [5]) [µM] | further results
COc1ncnn1-c1noc2c(F)c3c(cc12)CC1(C(=O)NC(=O)NC1=O)[C@H]1[C@H](C)O[C@H](C)CN31 [Compound 16] | 2 (≈ 0.971 µg/mL) | 12 (≈ 5.83 µg/mL) | 9.4 (≈ 4.56 µg/mL) | 12 (≈ 5.83 µg/mL) | 9.4 (≈ 4.56 µg/mL) |  | 
CNc1ncnn1-c1noc2c(F)c3c(cc12)CC1(C(=O)NC(=O)NC1=O)[C@H]1[C@H](C)O[C@H](C)CN31 [Compound 17] | 0.9 (≈ 0.436 µg/mL) | 6.2 (≈ 3 µg/mL) | 6.2 (≈ 3 µg/mL) | 9.4 (≈ 4.55 µg/mL) | 3.1 (≈ 1.5 µg/mL) |  | 
C[C@@H]1CN2c3c(cc4c(-n5cncn5)noc4c3Cl)CC3(C(=O)NC(=O)NC3=O)[C@H]2[C@H](C)O1 [Compound 18] | 0.49 (≈ 0.231 µg/mL) | 3.1 (≈ 1.46 µg/mL) | 1.6 (≈ 0.755 µg/mL) | 1.6 (≈ 0.755 µg/mL) | 0.78 (≈ 0.368 µg/mL) |  | 
C[C@@H]1CN2c3c(cc4c(-n5ncnc5N5CCOC[C@H]5C)noc4c3F)CC3(C(=O)NC(=O)NC3=O)[C@H]2[C@H](C)O1 [Compound 19] | 16 (≈ 8.87 µg/mL) | > 50 | > 50 | > 50 | > 50 |  | 
C[C@@H]1CN2c3c(cc4c(C5=N[C@H](C)[C@@H](C)N5)noc4c3F)CC3(C(=O)NC(=O)NC3=O)[C@H]2[C@H](C)O1 [Compound 20] | 5.5 (≈ 2.66 µg/mL) | 6.2 (≈ 3 µg/mL) | 6.2 (≈ 3 µg/mL) | 4.7 (≈ 2.28 µg/mL) | 3.1 (≈ 1.5 µg/mL) |  | 
C[C@@H]1CN2c3c(cc4c(C5=N[C@H]6COC[C@H]6N5)noc4c3F)CC3(C(=O)NC(=O)NC3=O)[C@H]2[C@H](C)O1 [Compound 21] | 3.4 (≈ 1.69 µg/mL) | 9.4 (≈ 4.69 µg/mL) | 9.4 (≈ 4.69 µg/mL) | 6.2 (≈ 3.09 µg/mL) | 6.2 (≈ 3.09 µg/mL) |  | 
C[C@@H]1CN2c3c(cc4c(N5CCN(C)C5=O)noc4c3F)CC3(C(=O)NC(=O)NC3=O)[C@H]2[C@H](C)O1 [Compound 23] | 4.3 (≈ 2.09 µg/mL) | 37 (≈ 18 µg/mL) | 12 (≈ 5.84 µg/mL) | 19 (≈ 9.24 µg/mL) | 6.2 (≈ 3.02 µg/mL) |  | 
CC(=O)NCC1CN(c2cc3c(c(F)c2F)N2C[C@H](C)O[C@H](C)[C@H]2C2(C3)C(=O)NC(=O)NC2=O)C(=O)O1 (stereo partly shown) [Compound 24] | > 50 | > 50 | > 50 | > 50 | > 50 |  | activity in the M. tuberculosis MIC assays (M. tuberculosis H37Rv [1]; any of the MIC media): did not show activity at the highest concentration tested
CC[C@@H](CO)NCCN[C@@H](CC)CO [Ethambutol, ethambutol, reference compound] |  |  |  |  |  |  | CFU decline in lung burdens relative to the untreated controls [2]: 2.6 log10 CFU; n, number of mice showing viable bacteria above the lower limit of detection/total number of animals tested (Mtb): 5/5
NNC(=O)c1ccncc1 [Isoniazid, isoniazid] |  |  |  |  |  | 3.95 (≈ 0.542 µg/mL) | bioluminescence response in PrecA-LUX assay ([3]; over 7 days): did not elicit significant luminescence; bioluminescence response in PiniB-LUX assay [4]: strong signal; PrecA-LUX MIC (H37Rv (RecA)): ~ 7 μM; MBC relative to MIC (M. tuberculosis H37Rv [6]): less than 4 fold; MIC (M. tuberculosis H37Rv [6]): 4.61 µM (≈ 0.632 µg/mL); MBC (M. tuberculosis H37Rv [6]): 3.9 µM (≈ 0.535 µg/mL)
C[C@H]1COc2c(N3CCN(C)CC3)c(F)cc3c(=O)c(C(=O)O)cn1c23 [Levofloxacin] |  |  |  |  |  | 0.49 (≈ 0.177 µg/mL) | 
CC(=O)NC[C@H]1CN(c2ccc(N3CCOCC3)c(F)c2)C(=O)O1 [Linezolid, linezolid] |  |  |  |  |  |  | MBC relative to MIC (M. tuberculosis H37Rv [6]): greater than 4 fold; MIC (M. tuberculosis H37Rv [6]): 1.51 µM (≈ 0.509 µg/mL); MBC (M. tuberculosis H37Rv [6]): 7.8 µM (≈ 2.63 µg/mL)
COc1c(N2C[C@@H]3CCCN[C@@H]3C2)c(F)cc2c(=O)c(C(=O)O)cn(C3CC3)c12 [Moxifloxacin, moxifloxacin] |  |  |  |  |  | 0.24 (≈ 0.0963 µg/mL) | PrecA-LUX signal higher than for 22 ([3]; at 0.5× MIC): ~6 fold; CFU reduction (M. tuberculosis): 3.3 log10 CFU; MIC (M. tuberculosis H37Rv [1]; H37Rv, 7H9 medium with DPPC/Casitone/tyloxapol, read-out: MIC, DPPC/CAS/TX): 0.2 µM (≈ 0.0803 µg/mL); MIC (M. tuberculosis H37Rv [1]; H37Rv, 7H9 medium with albumin-dextrose catalase/glucose/Tween, read-out: MIC, ADC/GLU/TW): 0.17 µM (≈ 0.0682 µg/mL); MIC (M. tuberculosis H37Rv [1]; H37Rv, 7H9 medium with glucose/BSA/tyloxapol, read-out: MIC, GLU/BSA/TX): 0.3 µM (≈ 0.12 µg/mL); n, number of mice showing viable bacteria above the lower limit of detection/total number of animals tested (Mtb): 3/6; PrecA-LUX MIC (H37Rv (RecA)): ~ 0.19 μM; MIC (M. tuberculosis H37Rv [6]): 0.38 µM (≈ 0.153 µg/mL); MBC (M. tuberculosis H37Rv [6]): 0.78 µM (≈ 0.313 µg/mL)
CO[C@H]1/C=C/O[C@@]2(C)Oc3c(C)c(O)c4c(O)c(c(/C=N/N5CCN(C)CC5)c(O)c4c3C2=O)NC(=O)/C(C)=C\C=C\[C@H](C)[C@H](O)[C@@H](C)[C@@H](O)[C@@H](C)[C@H](OC(C)=O)[C@@H]1C [Rif, rifampicin] |  |  |  |  |  | 0.002 (≈ 0.00165 µg/mL) | MIC90, ΔcydA (M. tuberculosis ΔcydA): 0.0046 µM (≈ 0.00379 µg/mL)
CC(C)=CCC/C(C)=C/CNCCNC1C2CC3CC(C2)CC1C3 (stereo not shown) [SQ109] |  |  |  |  |  | 0.49 (≈ 0.162 µg/mL) | 
C[C@@H]1CN2c3c(cc4c(N5C(=O)OC[C@@H]5C)noc4c3F)CC3(C(=O)NC(=O)NC3=O)[C@H]2[C@H](C)O1 [Zoliflodacin, zoliflodacin, reference compound] | 6.4 (≈ 3.12 µg/mL) | 19 (≈ 9.26 µg/mL) | 19 (≈ 9.26 µg/mL) | 12 (≈ 5.85 µg/mL) | 19 (≈ 9.26 µg/mL) |  | MIC against N. gonorrhoeae lower than that for 22 (N. gonorrhoeae): 8 fold
